Test results reported in patent US6949660B2, “Chiral (1pyrrolino) fullerene derivatives” (Seth Nanotechnology, Incorporated, priority 1995, dated 2005).

Columns and labels:
[1] = test system: superoxide radicals (O2−); assay: Superoxide radical scavenging: xanthine/xanthine oxidase system, cytochrome C reduction, absorption at 550 nm; format: biochemical; conditions: xanthine 50 μM, cytochrome C 10 μM, phosphate buffer pH 7.8
Experimental: Detection of high free radical scavenging potency of hydrophilic fullerene derivatives. […] Therefore, the detected optical absorption intensity of the reduced cytochrome (Fe^+2) C can be correlated to the quantity of superoxide radicals reacted with cytochrome (Fe^+3) C. Scavenging of superoxide radicals by hydrophilic fullerene derivatives in the bio-medium inhibits the formation of reduced cytochrome (Fe+2) C and thus reduce the optical absorption at 550 nm.
In one experiment, xanthine (50 μM) was added to a physiological medium (3 ml) containing cytochrome C (10 μM), ethylenediaminetetraacetic acid (EDTA) (10 mM) and a phosphate buffer (50 mM) at pH 7.8. The mixture was then added xanthine oxidase in quantity enough to induce 0.025 unit of optical absorption at 550 nm per 5 min (Mc Cord, et al. J. Biol. Chem. 1969, 244, 6049.). Subsequently, 1,3-dimethyl-N-succinamitofulleropyrrolidine-1,3-dicarboxylic acid, C60[C(CH3)CO2H]2NCO—CH2CH2CO2H, prepared in Example 12, in a concentration of 0, 5.0, 10.0, 25.0, 50, and 100 μM was added in separated runs while the absorption intensity of the reduced cytochrome C was recorded. A rapid decrease of reduced cytochrome C to roughly 50% and 20% of the control value was obtained with the dose of 1,3-dimethyl-N-succinamitofulleropyrrolidine-1,3-dicarboxylic acid as 25 and 100 μM, respectively.

[2] = test system: Fibrosarcoma tumor cells (CCRC 60037); assay: Growth inhibition of fibrosarcoma tumor cells upon photo-irradiation, MTT assay; format: cell-based; conditions: compound 2.5 μM for 24 h; fluorescence light (27 W) photo-irradiation more than 20 min; then 48 h at 37° C.
Experimental: The growth inhibitory effect of 1,3-dimethyl-N-succinamitofulleropyrrolidine-1,3-dicarboxylic acid, C60[C(CH3)CO2H]2NCO—CH2CH2CO2H, which was prepared as described in Example 12, on fibrosarcoma tumor cells upon photo-irradiation was studied in vitro. Fibrosarcoma tumor cells (0.5 ml, 4×10^4/ml, CCRC 60037) were grown in the MEM medium in a 24-well plate for a period of 24 h. It was treated by 1,3-dimethyl-N-succinamitofulleropyrrolidine-1,3-dicarboxylic acid in a concentration of 0.0, 2.5, 5.0, 7.5, and 10.0 μM for a period of 24 hours. The MEM medium was removed and replaced by the fresh medium (1.0 ml). The cell-containing plates were exposed to a fluorescence light source (27 W) in a distance of 5-6 cm for a period of 10, 20, 40, and 60 min. The plates were then kept in incubator at 37° C. a period of 48 h. Measurement of cell viability in each plate was performed by the MTT assay using optical absorption at 540 nm.

Substance: 1,3-dimethyl-N-succinamitofulleropyrrolidine-1,3-dicarboxylic acid
- reduced cytochrome C, % of the control value ([1]; compound 25 μM): roughly 50%
- reduced cytochrome C, % of the control value ([1]; compound 100 μM): ~20%
- tumor cell count (cell viability, MTT, absorption at 540 nm) [2]: rapid decrease in the tumor cell count
